Results reported in paper PMC8867149, “Phosphorylated and Phosphonated Low‐Complexity Protein Segments for Biomimetic Mineralization and Repair of Tooth Enamel” (Advanced Science, 2022).
Non-standard residues stand in square brackets, D forms with d. Residues, ends and D or L forms follow the SMILES beside them. pS = N[C@@H](COP(=O)(O)O)C(=O)O

Molecular target: T1, Alkaline phosphatase, calf intestinal (ALP) (Bos taurus, UniProt P19111)
T1 construct: purchased New England BioLabs (printed 'NEW ENGLANK BioLabs Inc.') M0290
T1 sequence (P19111 20-533): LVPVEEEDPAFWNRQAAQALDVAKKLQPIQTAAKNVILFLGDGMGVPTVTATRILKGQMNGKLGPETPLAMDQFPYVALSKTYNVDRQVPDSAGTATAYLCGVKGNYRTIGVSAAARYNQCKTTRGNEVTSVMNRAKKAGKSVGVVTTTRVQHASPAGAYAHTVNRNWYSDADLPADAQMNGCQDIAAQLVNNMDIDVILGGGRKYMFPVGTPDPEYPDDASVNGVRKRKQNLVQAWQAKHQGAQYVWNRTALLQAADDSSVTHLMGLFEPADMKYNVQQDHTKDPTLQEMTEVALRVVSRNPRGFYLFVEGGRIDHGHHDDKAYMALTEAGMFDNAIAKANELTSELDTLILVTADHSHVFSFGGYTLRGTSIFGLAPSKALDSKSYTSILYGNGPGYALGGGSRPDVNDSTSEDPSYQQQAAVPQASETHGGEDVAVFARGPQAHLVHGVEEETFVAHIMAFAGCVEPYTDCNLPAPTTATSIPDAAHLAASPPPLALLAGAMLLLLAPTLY
Test: Stability of phosphate/phosphonate group in the presence of ALP (HPLC)
Type: in vitro ADME
Details: 10 U mL^−1 ALP (calf intestinal), half an hour; peptide assemblies; HPLC read-out
Protocol: Figure 2 Characterization of LCPSs and their self‐assembly. a) FTIR characterization of different molecular structures among the LCPS peptides with a concentration of 10 mg mL^−1 LCPS assembly solution. b) Negatively stained TEM images showing the self‐assembled structures of LCPS‐OH, LCPS‐OP, and LCPS‐CP at pH 3.0, 5.0, 7.0, and 9.0. c) Zeta potential values of LCPSs at pH 7. The data are the means ± SD (n = 3 repeats per group). d) CD spectra of LCPS‐OH, LCPS‐OP, and LCPS‐CP assembly solutions (10 mg mL^−1) at pH 7. Self‐assembly of e) LCPS‐OP and f) LCPS‐CP after the addition of ALP. g) HPLC charts chromatograms of LCPS solutions with or without the addition of ALP. The LCPSs were incubated with 10 U mL^−1 ALP for half an hour.
The aggregated peptides were mineralized in the neutral condition directly as mentioned above, in the presence of 10 U mL^−1 ALP (calf‐intestinal). After assembling, 10 µL of the peptide assembly solution was diluted with equal volume of ddH2O. Then, 100 µL of the 1.35 × 10^−3 M CaCl2 solution containing 10 U mL^−1 ALP was added into the peptide assembly solution, and the resultant mixed solution was vibrated for 1 h to ensure the binding of calcium ions with the peptide aggregates. Next, 100 µL of the 0.81 × 10^−3 M K2HPO4 solution containing 10 U mL^−1 ALP was added dropwise for about 1 h while vibrating. […]

- stability of phosphate/phosphonate group in the presence of ALP: completely hydrolyzed
SMILES: N[C@@H](CO)C(=O)N[C@@H](Cc1ccc(O)cc1)C(=O)N[C@@H](COP(=O)(O)O)C(=O)NCC(=O)N[C@@H](Cc1ccc(O)cc1)C(=O)N[C@@H](CO)C(=O)O [LCPS‐OP] (H-SY[pS]GYS-OH)
